{"source": "paper PMC6382819", "about": "“Design strategy for serine hydroxymethyltransferase probes based on retro-aldol-type reaction” (Nature Communications, 2019)", "key": {"hSHMT1 [1]": {"target": "T1, hSHMT1 (Homo sapiens, UniProt P34896)", "T1 construct": "gene SHMT1", "T1 sequence (P34896 2-483)": "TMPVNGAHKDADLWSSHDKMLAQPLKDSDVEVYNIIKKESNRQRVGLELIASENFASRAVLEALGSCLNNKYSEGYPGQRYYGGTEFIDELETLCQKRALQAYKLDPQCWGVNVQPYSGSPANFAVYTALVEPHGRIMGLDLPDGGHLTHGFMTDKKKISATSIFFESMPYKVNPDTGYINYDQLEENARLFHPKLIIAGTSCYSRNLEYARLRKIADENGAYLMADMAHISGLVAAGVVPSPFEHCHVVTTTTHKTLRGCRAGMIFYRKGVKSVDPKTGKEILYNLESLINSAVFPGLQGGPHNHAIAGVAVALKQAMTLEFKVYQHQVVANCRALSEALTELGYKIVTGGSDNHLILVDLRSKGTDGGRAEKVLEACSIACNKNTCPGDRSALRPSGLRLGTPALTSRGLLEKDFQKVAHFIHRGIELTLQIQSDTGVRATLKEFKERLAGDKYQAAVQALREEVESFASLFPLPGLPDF", "assay": "ITC; also DSF thermal shift and HPLC Ser-Gly conversion inhibition (IC50 […])", "type": "binding"}, "hSHMT1 [2]": {"target": "T1, hSHMT1", "assay": "enzyme kinetics with recombinant hSHMT1 (retro-aldol turnover, fluorescence)", "type": "biochemical"}, "hSHMT1 [3]": {"target": "T1, hSHMT1", "assay": "enzyme kinetics with recombinant hSHMT1 (UV absorption; […] NMR turnover)", "type": "biochemical"}}, "data": [{"smiles": "O=C(O)CCC(=O)Nc1ccc(-c2ccnc(-c3ccc(NC(=O)CCC(=O)O)cc3)n2)cc1", "note": "[Hit 1]", "values": [{"measurement": "Kd", "setting": "hSHMT1 [1]", "value": 2000, "unit": "nM"}]}, {"smiles": "CN(C)c1ccc2cc([C@H](O)[C@H](N)C(=O)O)ccc2c1", "note": "[compound 1, fluorescent probe 1]", "values": [{"measurement": "Km", "setting": "hSHMT1 [2]", "value": "1810 ± 190", "unit": "µM"}]}, {"smiles": "N[C@H](C(=O)O)[C@@H](O)c1ccc(F)cc1", "note": "[compound 2, 19F NMR probe 2]", "values": [{"measurement": "Km", "setting": "hSHMT1 [3]", "value": "2750 ± 270", "unit": "µM"}]}]}
